In patent publication US20110245496A1, “Quinazoline Salt Compounds” (priority 2007, published 2011):
“And” between values parts separate entries of the source, which are not always exact repeats. Equal values may be shown once.

How the values were obtained:
[1] = Salt solubility measurement in water; conditions: for solubility / Solubility as free base / Solubility as salt: water, stirred at ambient temperature 18-20 hours, filtered, hplc assay; for solubility: thermodynamic from solid; for pH of the remaining solution: remaining solution after solubility measurement in water
breast (BT474) cell line = test: Methylene blue growth inhibition assay, BT474; assay type: cell-based; conditions: Homo sapiens, BT-474, 72 h, BT474 cells, 3 days
Protocol: (§1) Human breast (BT474), head and neck (HN5) and gastric tumor (N87) cell lines and human foreskin Fibroblasts (HFF) were cultured in low glucose DMEM (Life Technologies 12320-032) containing 10% fetal bovine serum (FBS) at 37° C. in a humidified 10% CO2, 90% air incubator. The SV40 transformed human mammary epithelial cell line HB4a was transfected with either human H-ras cDNA (HB4a r4.2) or the human c-erbB2 cDNA (HB4a c5.2). The HB4a clones were cultured in RPMI containing 10% FBS, insulin ([…]), hydrocortisone ([…]), supplemented with the selection agent hygromycin B (50 μg/ml). Cells were harvested using trypsin/EDTA, counted using a haemocytometer, and plated in […] of the appropriate media, at the following densities, in a 96-well tissue culture plate (Falcon 3075): BT474 10,000 cells/well, HN5 3,000 cells/well, N87 10,000 cells/well, HB4a c5.2 3,000 cells/well, HB4a r4.2 3,000 cells/well, HFF 2500 cells/well. The next day, compounds were diluted in DMEM containing […] gentamicin, at twice the final required concentration, from 10 mM stock solutions in DMSO. […] of these dilutions were added to the […] of media currently on the cell plates. Medium containing 0.6% DMSO was added to control wells. […] Optical density at 620 nm was measured on a microplate reader. Percent inhibition of cell growth was calculated relative to vehicle treated control wells. […]

[2] = system: gastric tumor (N87) cell line; test: Methylene blue growth inhibition assay, N87; assay type: cell-based; conditions: Homo sapiens, 72 h, N87 cells, 3 days
Protocol: as §1

[3] = system: head and neck (HN5) cell line; test: Methylene blue growth inhibition assay, HN5; assay type: cell-based; conditions: Homo sapiens, 72 h, HN5 cells, 3 days
Protocol: as §1

Row | Molecule | solubility ([1]; Solubility as free base) | solubility ([1]; Solubility as salt) | Solubility as free base [1] | also measured
1 | CS(=O)(=O)CCNCc1ccc(-c2ccc3ncnc(Nc4ccc(OCc5cccc(F)c5)c(Cl)c4)c3c2)o1.C[C@H](O)C(=O)O.C[C@H](O)C(=O)O [Di-L-lactate, N-{3-Chloro-4-[(3-fluorobenzyl)oxy]phenyl}-6-[5-({[2-(methanesulphonyl)ethyl]amino}methyl)-2-furyl]-4-quinazolinamine di-L-lactate] | > 10300 µg/mL | > 13500 µg/mL | – | –
2 | CS(=O)(=O)CCNCc1ccc(-c2ccc3ncnc(Nc4ccc(OCc5cccc(F)c5)c(Cl)c4)c3c2)o1.O=C(O)c1ccccc1.O=C(O)c1ccccc1 [Dibenzoate, N-{3-Chloro-4-[(3-fluorobenzyl)oxy]phenyl}-6-[5-({[2-(methanesulphonyl)ethyl]amino}methyl)-2-furyl]-4-quinazolinamine dibenzoate] | 40 µg/mL | 60 µg/mL | – | –
3 | CS(=O)(=O)CCNCc1ccc(-c2ccc3ncnc(Nc4ccc(OCc5cccc(F)c5)c(Cl)c4)c3c2)o1.O=S(=O)(O)c1ccccc1.O=S(=O)(O)c1ccccc1 [Dibesylate, N-{3-Chloro-4-[(3-fluorobenzyl)oxy]phenyl}-6-[5-({[2-(methanesulphonyl)ethyl]amino}methyl)-2-furyl]-4-quinazolinamine dibesylate] | – | – | <LoD | –
4 | CCS(=O)(=O)O.CCS(=O)(=O)O.CS(=O)(=O)CCNCc1ccc(-c2ccc3ncnc(Nc4ccc(OCc5cccc(F)c5)c(Cl)c4)c3c2)o1 [Diesylate, N-{3-Chloro-4-[(3-fluorobenzyl)oxy]phenyl}-6-[5-({[2-(methanesulphonyl)ethyl]amino}methyl)-2-furyl]-4-quinazolinamine diesylate] | ~19700 µg/mL | ~27200 µg/mL | – | –
5 | CS(=O)(=O)CCNCc1ccc(-c2ccc3ncnc(Nc4ccc(OCc5cccc(F)c5)c(Cl)c4)c3c2)o1.O.O=C(O)/C=C\C(=O)O.O=C(O)/C=C\C(=O)O [Dimaleate monohydrate, N-{3-Chloro-4-[(3-fluorobenzyl)oxy]phenyl}-6-[5-({[2-(methanesulphonyl)ethyl]amino}methyl)-2-furyl]-4-quinazolinamine dimaleate monohydrate] | 40 µg/mL | 60 µg/mL | – | –
6 | CS(=O)(=O)CCNCc1ccc(-c2ccc3ncnc(Nc4ccc(OCc5cccc(F)c5)c(Cl)c4)c3c2)o1.O=C(O)/C=C\C(=O)O.O=C(O)/C=C\C(=O)O [Dimaleate, N-{3-Chloro-4-[(3-fluorobenzyl)oxy]phenyl}-6-[5-({[2-(methanesulphonyl)ethyl]amino}methyl)-2-furyl]-4-quinazolinamine dimaleate] | 130 µg/mL | 180 µg/mL | – | Solubility as free base ([1]; dimaleate): 0.15 mg/mL and 0.14 mg/mL; Solubility as salt ([1]; dimaleate): 0.20 mg/mL and 0.19 mg/mL
7 | CS(=O)(=O)CCNCc1ccc(-c2ccc3ncnc(Nc4ccc(OCc5cccc(F)c5)c(Cl)c4)c3c2)o1.CS(=O)(=O)O.CS(=O)(=O)O.O.O [Dimesylate dehydrate, N-{3-Chloro-4-[(3-fluorobenzyl)oxy]phenyl}-6-[5-({[2-(methanesulphonyl)ethyl]amino}methyl)-2-furyl]-4-quinazolinamine dimesylate dihydrate] | ~15300 µg/mL | ~21300 µg/mL | – | –
8 | CS(=O)(=O)CCNCc1ccc(-c2ccc3ncnc(Nc4ccc(OCc5cccc(F)c5)c(Cl)c4)c3c2)o1.CS(=O)(=O)O.CS(=O)(=O)O.O [Dimesylate monohydrate, N-{3-Chloro-4-[(3-fluorobenzyl)oxy]phenyl}-6-[5-({[2-(methanesulphonyl)ethyl]amino}methyl)-2-furyl]-4-quinazolinamine dimesylate monohydrate] | ~4360 µg/mL | 5800 µg/mL | – | Solubility as free base ([1]; dimesylate monohydrate): 1) ~4.70 mg/ml; Solubility as salt ([1]; dimesylate monohydrate): 1) 6.25 mg/ml
9 | CS(=O)(=O)CCNCc1ccc(-c2ccc3ncnc(Nc4ccc(OCc5cccc(F)c5)c(Cl)c4)c3c2)o1.CS(=O)(=O)O.CS(=O)(=O)O [Dimesylate, N-{3-Chloro-4-[(3-fluorobenzyl)oxy]phenyl}-6-[5-({[2-(methanesulphonyl)ethyl]amino}methyl)-2-furyl]-4-quinazolinamine dimesylate] | > 7350 µg/mL | > 10000 µg/mL | – | –
10 | CS(=O)(=O)CCNCc1ccc(-c2ccc3ncnc(Nc4ccc(OCc5cccc(F)c5)c(Cl)c4)c3c2)o1 [GW572016X, N-{3-Chloro-4-[(3-fluorobenzyl)oxy]phenyl}-6-[5-({[2-(methanesulphonyl)ethyl]amino}methyl)-2-furyl]-4-quinazolinamine] | – | – | – | IC50 (breast (BT474) cell line): < 5 µM; IC50 [2]: < 5 µM; IC50 [3]: < 5 µM
11 | CS(=O)(=O)CCNCc1ccc(-c2ccc3ncnc(Nc4ccc(OCc5cccc(F)c5)c(Cl)c4)c3c2)o1.O=C(O)C[C@H](O)C(=O)O [Mono L-malate, N-{3-Chloro-4-[(3-fluorobenzyl)oxy]phenyl}-6-[5-({[2-(methanesulphonyl)ethyl]amino}methyl)-2-furyl]-4-quinazolinamine mono-L-malate] | 50 µg/mL | 60 µg/mL | – | Solubility as salt ([1]; mono-L-malate): 0.07 mg/mL
12 | CS(=O)(=O)CCNCc1ccc(-c2ccc3ncnc(Nc4ccc(OCc5cccc(F)c5)c(Cl)c4)c3c2)o1.C[C@H](O)C(=O)O [Mono-L-lactate, N-{3-Chloro-4-[(3-fluorobenzyl)oxy]phenyl}-6-[5-({[2-(methanesulphonyl)ethyl]amino}methyl)-2-furyl]-4-quinazolinamine mono-L-lactate] | ~7300 µg/mL | 8500 µg/mL | – | Solubility as salt [1]: 2) 7.9 mg/ml
13 | CS(=O)(=O)CCNCc1ccc(-c2ccc3ncnc(Nc4ccc(OCc5cccc(F)c5)c(Cl)c4)c3c2)o1.O=C(O)CC(O)(CC(=O)O)C(=O)O [Monocitrate, N-{3-Chloro-4-[(3-fluorobenzyl)oxy]phenyl}-6-[5-({[2-(methanesulphonyl)ethyl]amino}methyl)-2-furyl]-4-quinazolinamine monocitrate] | 10 µg/mL | 10 µg/mL | – | –
14 | CCS(=O)(=O)O.CS(=O)(=O)CCNCc1ccc(-c2ccc3ncnc(Nc4ccc(OCc5cccc(F)c5)c(Cl)c4)c3c2)o1 [Monoesylate, N-{3-Chloro-4-[(3-fluorobenzyl)oxy]phenyl}-6-[5-({[2-(methanesulphonyl)ethyl]amino}methyl)-2-furyl]-4-quinazolinamine monoesylate] | 520 µg/mL | 620 µg/mL | 0.53 mg/mL | Solubility as salt [1]: 0.63 mg/mL
15 | CS(=O)(=O)CCNCc1ccc(-c2ccc3ncnc(Nc4ccc(OCc5cccc(F)c5)c(Cl)c4)c3c2)o1.CS(=O)(=O)O [Monomesylate, N-{3-Chloro-4-[(3-fluorobenzyl)oxy]phenyl}-6-[5-({[2-(methanesulphonyl)ethyl]amino}methyl)-2-furyl]-4-quinazolinamine monomesylate] | 330 µg/mL | 390 µg/mL | – | –
16 | CS(=O)(=O)CCNCc1ccc(-c2ccc3ncnc(Nc4ccc(OCc5cccc(F)c5)c(Cl)c4)c3c2)o1.O=C(O)CCC(=O)O [Succinate, N-{3-Chloro-4-[(3-fluorobenzyl)oxy]phenyl}-6-[5-({[2-(methanesulphonyl)ethyl]amino}methyl)-2-furyl]-4-quinazolinamine monosuccinate] | – | – | <LoD | Solubility as salt [1]: <LoD
17 | Lapatinib Di-L-Malate | – | – | 0.91 mg/mL | pH of the remaining solution [1]: 3.2; Solubility as salt [1]: 1.33 mg/mL
18 | Lapatinib Difumarate | – | – | <LoD | pH of the remaining solution [1]: 3.0
19 | Lapatinib Monofumarate | – | – | <LoD | pH of the remaining solution [1]: 4.0
